In US7348305B2, “Inhibitor of cardiac tachyarrhythmias” (Department of Veterans Affairs, Rehabilitation, priority 2003, dated 2008):
“Also recorded” adds a separate entry of the source. Like-named read-outs stand apart in the source and are kept apart here.

Columns and labels:
[1] = test system: proteasome; test: Proteasome chymotrypsin-like peptidase activity in myocardial tissue (RS, EBZ, INF) after injection; format: in vivo, dog; details: 0.175 mg/kg, INF tissue 23-hr after LAD ligation, n=4, control tissues averaged 45 FU/100 μg protein/min
Description: (§1) Whole blood was measured at each time interval (FIGS. 29A and 29B), and ischemic myocardial tissue proteasome activity was measured at the final time interval (FIG. 30).
(§2) Proteasome activity: Activity was determined by proteasome chymotrypsin-like peptidase activity assay. Both cardiac (all groups) and whole blood cell (groups 4 and 5) proteasome activity was assayed. 30 mg frozen cardiac tissue was powdered in liquid nitrogen and sonicated in 0.5 ml buffer. Samples were then centrifuged for 30 min at 10,000 g at 4° C. and the supernatant was used for the assay. For preparing whole blood cell, heparinized blood was washed one time with saline and twice with cold PBS. The cells were lysed with EDTA (5 mM, pH 8.0) for 1 hr and centrifuged at 6600 g for 10 min at 4° C. and the supernatant was used for the assay. 0.4 mM Suc-Ala-Ala-Phe-MAC (Bachem California) was used as substrate. […] The time course for fluorescence was measured using a VICTOR3 Multilabel Counter (Perkin Elmer, Inc) at time 0 and every 5 min for 1 h to estimate the MAC liberated (excitation 380 nm, emission 460 nm). Slopes and intercepts were calculated using Microsoft Excel. Final results were expressed as fluorescence units/μg protein/min.

[2] = test system: ventricular tachyarrhythmias following LAD coronary artery ligation; test: Model 1: two-stage LAD coronary artery ligation, Holter EKG monitoring 2-24 hr (ventricular triplets, sustained VT/VF, death); format: in vivo, dog; details: for fastest ventricular triplet rate observed per hour after LAD ligation (FIG. 18, FIG. 32): 4 to 24 hr after LAD ligation; for mortality (dogs died of group): 24 hr after LAD ligation, etanercept 2 mg/kg at -24 and -1 hr, bortezomib 0.0875 mg/kg at -1 and +6 hr, anakinra 10 mg/kg at -1 and +12 hr, control 4 of 10, preliminary
Description: The two-stage ligation procedure results in a very low incidence of ventricular fibrillation (<5-10%) during the initial 6 hours following coronary artery occlusion (Harris et al., 1951). Almost all ventricular fibrillation occurs during the initial 30 minutes with a high proportion of successful defibrillation. Ambulatory EKG monitoring is performed over the 2-24 hr period following coronary artery ligation. During the 6-24 hr period, a 25-40% incidence of rapid monomorphic ventricular tachycardia (385±15/min) leading to ventricular fibrillation is observed at 13.3±0.8 hours post-LAD ligation (FIG. 1), with a mean duration of monomorphic ventricular tachycardia preceding ventricular fibrillation of 66±7 sec. When provocative ventricular pacing is performed at 24 hours, however, the reentrant substrate supporting sustained ventricular tachycardia is present in more than 80% of the surviving dogs with no difference in rate between spontaneous and pacing-induced sustained monomorphic ventricular tachycardias (FIG. 3).
In the 24-hr Infarct (Model 1) Studies, each control and etanercept pretreated animal was monitored for ventricular arrhythmias using a Holter 2-lead recording for the duration of time following LAD ligation. […] In the saline control group, 4 animals died at 11-24 hours post ligation. […]
Model 1: Electrophysiologic correlates of myocardial infarction over a 24-hr period. Eighteen 15-22 kg male mongrel dogs were anesthetized with IV sodium pentobarbital (30 mg/kg). A cuffed endotracheal tube was inserted and the animals were ventilated with room air using a volume-cycled respirator. […] The dogs were extubated and allowed to awaken in a temperature-controlled, humidified small animal post-operative recovery unit. They were given nalbuphine 0.2 mg/kg for post-operative analgesia. During the 2-24 hr period following LAD ligation, Holter monitoring was performed and the two-lead EKG was recorded on magnetic tape. Dogs were re-anesthetized with sodium pentobarbital at 24-hr. The thoracotomy was reopened and the heart was removed and perfused with ice-cold Tyrode's buffer via the left main coronary artery. The outer 0.5-1.5 mm EBZ tissue overlying the infarct was shaved and a longitudinal sample of tissue from the LAD region was stained with triphenyltetrazolium chloride (0.1%) to determine viability of the EBZ. Triphenyltetrazolium (TTZ) forms a brick-red precipitate in the presence of active intracellular dehydrogenases, delineating vital tissue. Non-viable tissues are not stained and remain a pale color. […] Tissue samples from the RS, the EBZ and the infarct tissue were dissected rapidly on an ice-cold surface, placed in freezer vials, and frozen in liquid nitrogen. These samples were then stored at −70° C. for later assay.
EKG Analysis: Full disclosure EKG records were obtained at 10 mm/sec for the entire 2-24 hour post-occlusion period. All measurements and calculations were made by direct visual observation and manual counting.
Anti-TNFα Treatment: A dosage of 2 mg/kg hTNFR:Fc (supplied as etanercept, Amgen, Inc, Thousand Oaks, Calif.) or saline were injected IV into a forepaw vein at 24-hr and again 1-hr prior to LAD ligation. […] This dosage was used after consultation with the pharmaceutical corporate pharmacology section and based on unpublished internal data that this dosage would provide maximal sequestration of tissue and circulating TNFα.

[3] = test system: β-adrenergic receptor kinase (βARK); test: βARK immunoblot of EBZ tissue 24 hr after LAD ligation (Model 1); format: in vivo, dog; details: bortezomib pretreated dog versus saline control, 24-hour infarct
Description: βARK immunoblots were used to estimate βARK expression (Yu et al., 2000).
Western Blot Analysis: Assessment of βARK content was conducted using standard SDS-PAGE and immunoblot techniques. Samples containing 100 μg of protein from myocardial extracts were electrophoresed using 10% SDS-PAGE and transferred to nitrocellulose membranes. The membrane was incubated with monoclonal anti-βARK (Upstate Biotechnology, Inc, Lake Placid, N.Y.), followed by exposure to peroxidase-linked anti-mouse IgG. Antibody binding was detected by a chemiluminescent method (ECL, Amersham Biosciences Corp, Piscataway, N.J.). Quantification of immunoreactive proteins was performed by densitometric scanning and with Image QuaNT software (Molecular Dynamics).
β-ARK, Proteasome and Ubiquitin Expression Assays: β-ARK, ubiquitinated β-ARK and proteasome in EBZ and RS tissues was determined by Western blot analysis. Samples were adjusted after protein concentration was assayed (BCA, Pierce Chemicals) to provide identical loads. 100 μg protein was combined with equal volume of SDS sample buffer, and electrophoresed on a 10% polyacrylamide gel. The blocked membranes were incubated with mouse anti β-ARK monoclonal antibody (Santa Cruz Biotechnology, Santa Cruz, Calif.) for 1-h at room temperature followed by anti-mouse IgG coupled to horseradish peroxidase and developed using an ECL western blotting kit (Amersham). The bands were scanned, stripped and reprobed with mouse anti-ubiquitin antibody (Santa Cruz Biotechnology, Santa Cruz, Calif.). The membrane was rescanned, stripped a second time and reprobed with rabbit anti-proteasome 20S C2 subunit polyclonal antibody (A.G. Scientific, Inc. CA). A separate control gel was included that was similarly treated, but reprobed with the identical Ab and band quality and density compared to the previous data obtained before stripping. Quantitation of immunoreactive bands was performed by densitometric scanning using ImageQuant software (Molecular Dynamics).

[4] = test system: proteasome; test: Proteasome chymotrypsin-like peptidase activity in packed whole blood cells after injection; format: in vivo, dog; details: 0.175 mg/kg, 1 hr before and 8 hr after LAD ligation; 1-24 hr after first injection; n=4
Description: as §1, §2

[5] = biological target: β-adrenergic receptors in epicardium; test: Action potential shortening with isoproterenol in epicardium; design: species or system dog
Source text: This information is consistent with increased β-ARK-1 activity and decreased β-adrenergic receptor sensitivity in ventricular myocardium with chronic catecholamine administration or the converse, a decrease in β-ARK-1 with prolonged β-adrenergic receptor blockade (Pye et al., 2003).

[6] = biological target: β-adrenergic receptor / adenylate cyclase; details: read-out: mean EC50, isoproterenol-AC activity, SEM, n=4
Description: FIG. 10 illustrates an isoproterenol-AC activity dose-response curve in EBZ and RS tissue obtained 24 hours after LAD ligation. Data are shown for 1 of 4 experiments. Each point is mean of duplicate samples.

[7] = test system: ventricular tachyarrhythmias following LAD coronary artery ligation; details: nadolol-treated dogs (Patterson et al., 1986), cited from earlier work

Question: For `CC(C)C[C@H](NC(=O)[C@H](Cc1ccccc1)NC(=O)c1cnccn1)B(O)O` [bortezomib], which “myocardial tissue proteasome activity 24-hr after first injection” value [1] is on record?
Answer: Its value is “decreased from control tissues”.

Question: And the “fastest ventricular triplet rate observed per hour after LAD ligation (FIG. 18, FIG. 32)” value [2]?
Answer: Its value is “marked decrease”.

Question: What about the “mortality (dogs died of group)” value [2] of the same compound?
Answer: Its value is 0 of 6.

Question: What about the “very rapid (≧360 bpm) ventricular triplets versus control (FIG. 31B)” value ([2]; etanercept 2 mg/kg, bortezomib 0.0875 mg/kg) of the same compound?
Answer: The value was “significant descrease; also recorded: no triplets in this range”.

Question: And the “protection against loss of βARK (GRK2) protein in EBZ, Western immunoblot (FIG. 34)” value [3]?
Answer: The value was “marked protection against loss of βARK protein; also recorded: significant protection against loss of GRK2 expression”.

Question: What about the “packed whole blood proteasome activity after injection” value [4] of the same compound?
Answer: Its value is “significant decrease in proteasome activity”.

Question: Which results are given for `CC(C)NCC(O)c1ccc(O)c(O)c1` (centres unmarked) [isoproterenol]?
Answer: EC50 ([5]; control normal tissue): 0.47 nM; EC50 ([5]; remote site normal tissue, 24 hours post LAD ligation): 14.3 nM; EC50 ([6]; EBZ tissue 24 hours after LAD ligation): 18 ± 8.9 nM; EC50 ([6]; RS tissue 24 hours after LAD ligation): 73 ± 22 nM

Question: For `CC(C)(C)NCC(O)COc1cccc2c1CC(O)C(O)C2` (centres unmarked) [nadolol], which “incidence of sudden death, 2-24 hr after coronary artery ligation” value ([7]; FIG. 6) is on record?
Answer: Its value is “reduce the incidence of sudden death”.

Question: What about the “rate and number of rapid ventricular triplets, 2-24 hr after coronary artery ligation” value ([7]; FIGS. 7 and 8) of the same compound?
Answer: The value was “reduce both the rate and number of rapid ventricular triplets”.

Question: And the “incidence of pacing-induced sustained monomorphic reentrant tachycardia in surviving animals at 24 hours” value [7]?
Answer: Its value is “without reducing the incidence”.

Question: What about the infarct mass [7] of the same compound?
Answer: The infarct mass was “without altering infarct mass”.

Question: With “anakinra: interleukin-1 antagonist (IL-1 inhibitor)” as the compound, how does the “fastest ventricular triplet rate observed per hour after LAD ligation (FIG. 18, FIG. 32)” value [2] read?
Answer: Its value is “no significant difference between etancercept and anakinra”.

Question: And the “mortality (dogs died of group)” value [2]?
Answer: The value was 1 of 7.

Question: And the “rapid (>300 bpm) ventricular triplets per hour versus control (FIG. 31A)” value ([2]; etanercept 2 mg/kg, bortezomib 0.0875 mg/kg, anakinra 10 mg/kg)?
Answer: Its value is “relatively low until 8 hours after LAD and then rose rapidly”.
